# In patent publication US7491819B1 (priority 2004, dated 2009):
# Test system: HIV-1 303B
# Test: microbe, parasite or virus in culture
# Type: cell-based
# Settings: for EC50: Human immunodeficiency virus 1, MT2, 120 h; for overall antiviral effect of the two-drug combination with Example 19 (in words): classification from combination indices and confidence intervals; for Combination Indices at 50% HIV Inhibition (Confidence Interval) / Combination Indices at 75% HIV Inhibition (Confidence Interval) / Combination Indices at 90% HIV Inhibition (Confidence Interval): in combination with Example 19, 95% CI in parenthesis
# Description: Virus and cell lines. The T-cell line, MT-2, was obtained through the AIDS Research and Reference Reagent Program. MT-2 cells were sub-cultured twice a week in RPMI 1640 medium supplemented with 10% fetal bovine serum, 2 mM L-glutamine, and 10 mM HEPES buffer pH 7.5. The HIV-1303B virus is a molecular clone derived from the NL4-3 strain of HIV-1 that was obtained from the NIH AIDS Research and Reference Reagent Program. For combinations with enfuvirtide, the NL36G virus was used. […] Virus stocks were made by transfecting 293T cells with a proviral DNA clone using LipofectAMINE PLUS (Invitrogen), according to the manufacturer's instructions. Three days post-transfection, virus was harvested and passaged once in MT-2 cells before titration in MT-2 cells.
# Chemicals. Example 19, atazanavir, didanosine, stavudine, efavirenz, and enfuvirtide (T-20) were synthesized by Bristol-Myers Squibb using published or known reactions. […] Tenofovir was tested as tenofovir disopoxil fumarate. Zidovudine and zalcitabine were purchased from Sigma, and emtricitabine from Moravek Biochemicals.
# Drug Susceptibility and Cytotoxicity Assays. For drug susceptibility assays, MT-2 cells were infected with HIV-1 303B (or NL36G), at an MOI of 0.001, and seeded into 96-well microtiter plates (2.5×10^5 cells/ml) containing serial dilutions of test compounds. […] Each drug ratio consisted of an array of 3-fold serial dilutions, and was performed with eight or more replicas on separate multi-well plates. HIV infected cells were incubated at 37° C. in 5% CO2, and on day five post-infection, the extent of virus replication was measured by determining cell viability using the CellTiter 96 Aqueous Non-Radioactive Cell Proliferation Assay (Promega). […] Cytotoxicity assays were performed in parallel with the combination experiments. Here, uninfected cells were exposed to the same drug combinations, and assayed after five days for cell viability using the MTS assay.
# Analysis of Drug Combination Effects. For determination of combination index (CI) values, drugs were diluted in a fixed ratio and multiple ratios were analyzed. The drug serial dilutions spanned a range of concentrations near the EC50 value of each compound, so that equivalent antiviral activities could be compared. The normalized responses from each therapy are fit to the four-parameter logistic model with a common minimum and maximum across all therapies. Conceptually, this equation can be written as
# In this equation, Fa stands for “fraction affected,” and represents the fraction of the viral load that has been inactivated. […] The EC50, represented by the Ci in the above equation, is the drug concentration that is expected to reduce the amount of virus by 50%, and the Bi are the parameters that reflects the slope of the concentration-response curve. For this assay, A is the bottom plateau common to all curves, D is the common top plateau, Bj is the “slope” parameter for the jth therapy, and Cj is the concentration that produces an effect equal to the average of A and D for the jth therapy. Therapies 1 and 2 correspond to mono therapies 1 and 2, respectively. Therapies 3, 4, and 5 correspond to the three combination therapies. EC50 values for each drug were determined from the single drug experiments, using the above equation. The equation was fit using a nonlinear regression routine (Proc Nlin) in PC SAS version 8.2 (SAS Institute Inc.).
# To assess antiviral effects of different drug combination treatments, combination indices (CIs) were calculated according to Chou and Rideout. The combination index was computed as
# In this equation [Dm]1 and [Dm]2 are the concentrations of drugs that would individually produce a specific level of effect, while [D]1 and [D]2 are the concentrations of drugs in combination that would produce the same level of effect.
# Theoretically, additivity is implied if the CI is equal to one, synergy if the CI is less than one, and antagonism if the CI is greater than one.
# [1] = EC50 ratio Example 19:comparator 1:1
# [2] = EC50 ratio Example 19:comparator 1:2.5
# [3] = EC50 ratio Example 19:comparator 2.5:1
Compound,EC50 [µM],overall antiviral effect of the two-drug combination with Example 19 (in words),Combination Indices at 50% HIV Inhibition (Confidence Interval) [1],Combination Indices at 75% HIV Inhibition (Confidence Interval) [1],Combination Indices at 90% HIV Inhibition (Confidence Interval) [1],Combination Indices at 50% HIV Inhibition (Confidence Interval) [2],Combination Indices at 75% HIV Inhibition (Confidence Interval) [2],Combination Indices at 90% HIV Inhibition (Confidence Interval) [2],Combination Indices at 50% HIV Inhibition (Confidence Interval) [3],Combination Indices at 75% HIV Inhibition (Confidence Interval) [3],Combination Indices at 90% HIV Inhibition (Confidence Interval) [3],overall antiviral effect of the two-drug combination with Example 19 (in words) (listed as nevaripine)
"CC(C)(C)NC(=O)[C@@H]1CN(Cc2cccnc2)CCN1C[C@@H](O)C[C@@H](Cc1ccccc1)C(=O)N[C@H]1c2ccccc2C[C@H]1O [Indinavir, indinavir]",0.026,additive relationship with Example 19 cannot be ruled out,"0.86 (0.80, 0.92)","0.71 (0.62, 0.81)","0.60 (0.46, 0.73)","0.92 (0.84, 0.99)","0.84 (0.76, 0.92)","0.77 (0.66, 0.89)","0.94 (0.87, 1.02)","0.79 (0.71, 0.87)","0.67 (0.57, 0.77)",–
"Cc1cccc(C)c1OCC(=O)N[C@@H](Cc1ccccc1)[C@@H](O)C[C@H](Cc1ccccc1)NC(=O)[C@H](C(C)C)N1CCCNC1=O [Lopinavir, lopinavir]",0.017,additive relationship with Example 19 cannot be ruled out,"0.74 (0.67, 0.82)","0.77 (0.66, 0.88)",–,"0.77 (0.66, 0.88)","0.56 (0.36, 0.75)","0.41 (0.19, 0.64)","0.76 (0.69, 0.83)","0.62 (0.55, 0.70)","0.54 (0.47, 0.61)",–
"Cc1c(O)cccc1C(=O)N[C@@H](CSc1ccccc1)[C@H](O)CN1C[C@H]2CCCC[C@H]2C[C@H]1C(=O)NC(C)(C)C [Nelfinavir, nelfinavir]",0.022,synergistic-additive effect,"0.79 (0.73, 0.86)","0.75 (0.67, 0.82)","0.71 (0.56, 0.84)","0.97 (0.89, 1.06)","0.87 (0.79, 0.95)","0.78 (0.68, 0.88)","1.09 (1.00, 1.18)","0.98 (0.89, 1.08)","0.90 (0.76, 1.03)",–
"Cc1ccnc2c1NC(=O)c1cccnc1N2C1CC1 [Nevirapine, nevirapine]",0.095,synergism at most effective concentrations and molar ratios,"0.72 (0.62, 0.82)","0.69 (0.55, 0.83)","0.66 (0.46, 0.87)","0.76 (0.64, 0.87)","0.81 (0.64, 0.97)","0.87 (0.59, 1.15)","0.73 (0.62, 0.83)","0.68 (0.55, 0.81)","0.64 (0.45, 0.84)",strong synergistic effects
"CC(C)c1nc(CN(C)C(=O)N[C@H](C(=O)N[C@@H](Cc2ccccc2)C[C@H](O)[C@H](Cc2ccccc2)NC(=O)OCc2cncs2)C(C)C)cs1 [Ritonavir, ritonavir]",0.048,additive relationship with Example 19 cannot be ruled out,"0.80 (0.67, 0.93)","0.57 (0.41, 0.73)","0.44 (0.23, 0.65)","0.73 (0.59, 0.88)","0.64 (0.48, 0.80)","0.61 (0.38, 0.85)","0.92 (0.72, 1.11)","0.72 (0.50, 0.93)","0.59 (0.32, 0.87)",–
